Columns and labels:
[1] = system: ovalbumin sensitised Brown Norway rat eosinophilia model; test: Ovalbumin sensitised Brown Norway rat eosinophilia model; type: in vivo; details: single 30 μg intra-tracheal dose, suspension in saline, 30 min prior to ovalbumin challenge
Method: Pharmacological activity in vivo was assessed in an ovalbumin sensitised Brown Norway rat eosinophilia model. This model is designed to mimic allergen induced lung eosinophilia, a major component of lung inflammation in asthma.

[2] = system: rat model of thymus involution; test: Rat model of thymus involution; type: in vivo; details: 3 daily IT doses of 100 μg
[3] = Pharmacokinetics after intra-tracheal dry powder dosing in the pig; type: in vivo; details: for AUC (0-inf): compound (I) AUC calculated with IV plasma half-life
Method: Serial blood samples were taken for up to 8 h following dosing.

[4] = Pharmacokinetics after intravenous and oral dosing in rats; details: rat, IV 0.1 mg/kg

reduction of thymus weight [2]: 78% | Cmax ([3]; Pig 1, 1 mg intra-tracheal dry powder blend in lactose): 0.277 ng/mL | AUC (0-inf) ([3]; Pig 1, 1 mg intra-tracheal dry powder): 0.455 ng·h/mL | Cmax ([3]; Pig 2, 1 mg intra-tracheal dry powder blend in lactose): 0.218 ng/mL | AUC (0-inf) ([3]; Pig 2, 1 mg intra-tracheal dry powder): 0.495 ng·h/mL | time after dosing up to which quantifiable in plasma ([3]; anaesthetised pigs, 1 mg intra-tracheal, LLOQ 10 pg/mL compound (I), 20 pg/mL fluticasone propionate): up to 8 hours | plasma clearance [4]: 2.71 L/h/kg
SMILES: CCC(=O)O[C@]1(C(=O)SCF)[C@H](C)C[C@H]2[C@@H]3C[C@H](F)C4=CC(=O)C=C[C@]4(C)[C@@]3(F)[C@@H](O)C[C@@]21C [Fluticasone propionate, 6α, 9α-Difluoro-17α-(1-oxopropoxy)-11β-hydroxy-16α-methyl-3-oxo-androsta-1,4-diene-17β-carbothioic acid S-fluoromethyl ester, reference compound]
inhibition of lung eosinophilia [1]: 41%

From US20050130947A1, “Formulations for inhalation” (priority 2002, published 2005)
